Measurements taken from US20260027116A1, “Methods of Treating Chronic Graft-Versus-Host Disease Following Allogeneic Hematopoietic Stem Cell Transplantation” (Kadmon Corporation, LLC, priority 2022, published 2026).

Test system: patients with cGVHD
Conditions: Cohort 1 200 mg QD

In the case of `CC(C)NC(=O)COc1cccc(-c2nc(Nc3ccc4[nH]ncc4c3)c3ccccc3n2)c1` [Belumosudil, 2-{3-[4-(1H-indazol-5-ylamino)-2-quinazolinyl]phenoxy}-N-(propan-2-yl) acetamide], the “Rash erythematous: # Events” value is reported as 0, the “Rash erythematous: Affected/At Risk (%)” value is reported as 0/17 (0%) and the “Rash maculo-papular: # Events” value is reported as 2. The “Rash maculo-papular: Affected/At Risk (%)” value was 2/17 (11.76%), the “Rash pustular: # Events” value was 0 and the “Rash pustular: Affected/At Risk (%)” value was 0/17 (0%). For the same molecule, the “Rash: # Events” value was 2, the “Rash: Affected/At Risk (%)” value was 1/17 (5.88%) and the “Red blood cells urine positive: # Events” value was 0. For the same molecule, the “Red blood cells urine positive: Affected/At Risk (%)” value was 0/17 (0%), the “Renal failure: # Events” value was 0 and the “Renal failure: Affected/At Risk (%)” value was 0/17 (0%). The “Respiratory syncytial virus infection: # Events” value was 0, the “Respiratory syncytial virus infection: Affected/At Risk (%)” value was 0/17 (0%) and the “Respiratory tract infection fungal: # Events” value was 1. For the same molecule, the “Respiratory tract infection fungal: Affected/At Risk (%)” value was 1/17 (5.88%), the “Respiratory tract infection: # Events” value was 1 and the “Respiratory tract infection: Affected/At Risk (%)” value was 1/17 (5.88%). The “Restless legs syndrome: # Events” value was 0, the “Restless legs syndrome: Affected/At Risk (%)” value was 0/17 (0%) and the “Rosacea: # Events” value was 0. For the same molecule, the “Rosacea: Affected/At Risk (%)” value was 0/17 (0%), the “SAE, No. (%)” value was 5 (29) and the “Sinus pain: # Events” value was 2. For the same molecule, the “Sinus pain: Affected/At Risk (%)” value was 2/17 (11.76%), the “Sinusitis: # Events” value was 1 and the “Sinusitis: Affected/At Risk (%)” value was 1/17 (5.88%). The “Skin abrasion: # Events” value was 0, the “Skin abrasion: Affected/At Risk (%)” value was 0/17 (0%) and the “Skin lesion: # Events” value was 0. For the same molecule, the “Skin lesion: Affected/At Risk (%)” value was 0/17 (0%), the “Skin papilloma: # Events” value was 1 and the “Skin papilloma: Affected/At Risk (%)” value was 1/17 (5.88%). For the same molecule, the “Spinal compression fracture: # Events” value was 1, the “Spinal compression fracture: Affected/At Risk (%)” value was 1/17 (5.88%) and the “Squamous cell carcinoma of skin: # Events” value was 0. The “Squamous cell carcinoma of skin: Affected/At Risk (%)” value was 0/17 (0%), the “Stomatitis: # Events” value was 2 and the “Stomatitis: Affected/At Risk (%)” value was 1/17 (5.88%). For the same molecule, the “Superior vena cava syndrome: # Events” value was 0, the “Superior vena cava syndrome: Affected/At Risk (%)” value was 0/17 (0%) and the “TEAE, participants (%)” value was 17 (100%) participants. The “TESAE, participants (%)” value was 5 (29%) participants, the “Tachycardia: # Events” value was 0 and the “Tachycardia: Affected/At Risk (%)” value was 0/17 (0%). For the same molecule, the “Tendonitis: # Events” value was 0, the “Tendonitis: Affected/At Risk (%)” value was 0/17 (0%) and the “Testicular pain: # Events” value was 1. The “Testicular pain: Affected/At Risk (%)” value was 1/17 (5.88%), the “Testicular swelling: # Events” value was 1 and the “Testicular swelling: Affected/At Risk (%)” value was 1/17 (5.88%). For the same molecule, the “Thoracic spinal stenosis: # Events” value was 1, the “Thoracic spinal stenosis: Affected/At Risk (%)” value was 1/17 (5.88%) and the “Thrombocytopenia: # Events” value was 0. For the same molecule, the “Thrombocytopenia: Affected/At Risk (%)” value was 0/17 (0%), the “Thrombocytosis: # Events” value was 1 and the “Thrombocytosis: Affected/At Risk (%)” value was 1/17 (5.88%). For the same molecule, the “Tinea pedis: # Events” value was 0, the “Tinea pedis: Affected/At Risk (%)” value was 0/17 (0%) and the “Tooth fracture: # Events” value was 0. The “Tooth fracture: Affected/At Risk (%)” value was 0/17 (0%), the “Total other adverse events: Affected/At Risk (%)” value was 17/17 (100%) and the “Transfusion reaction: # Events” value was 1. The “Transfusion reaction: Affected/At Risk (%)” value was 1/17 (5.88%), the “Tremor: # Events” value was 3 and the “Tremor: Affected/At Risk (%)” value was 2/17 (11.76%). For the same molecule, the “Type 2 diabetes mellitus: # Events” value was 1, the “Type 2 diabetes mellitus: Affected/At Risk (%)” value was 1/17 (5.88%) and the “Ulcerative keratitis: # Events” value was 0. For the same molecule, the “Ulcerative keratitis: Affected/At Risk (%)” value was 0/17 (0%), the “Upper respiratory tract infection: # Events” value was 16 and the “Upper respiratory tract infection: Affected/At Risk (%)” value was 9/17 (52.94%). For the same molecule, the “Upper-airway cough syndrome: # Events” value was 0, the “Upper-airway cough syndrome: Affected/At Risk (%)” value was 0/17 (0%) and the “Urinary retention: # Events” value was 0. The “Urinary retention: Affected/At Risk (%)” value was 0/17 (0%), the “Urinary tract infection: # Events” value was 0 and the “Urinary tract infection: Affected/At Risk (%)” value was 0/17 (0%). For the same molecule, the “Urinary tract pain: # Events” value was 0, the “Urinary tract pain: Affected/At Risk (%)” value was 0/17 (0%) and the “Urine output decreased: # Events” value was 1. The “Urine output decreased: Affected/At Risk (%)” value was 1/17 (5.88%), the “Vascular access complication: # Events” value was 0 and the “Vascular access complication: Affected/At Risk (%)” value was 0/17 (0%).
